# Experimental data taken from ChEMBL document CHEMBL1137483, “Novel chalcones as probes for in vivo imaging of beta-amyloid plaques in Alzheimer's brains” (Bioorg Med Chem, 2007).
# How the values were obtained:
# [1] = Displacement of [125I](E)-3-(4-(Dimethylamino-phenyl)-1-(4-iodophenyl)prop-2-en-1-one from beta amyloid(1-42) aggregates; design: species or system Homo sapiens
# Blood [2] = test: Biodistribution in ddY mouse blood at 0.2 to 0.3 uCi, iv after 30 mins; assay type: ADME, organism-based; conditions: in vivo, 0.5 h
# Lung [3] = test: Biodistribution in ddY mouse lung at 0.2 to 0.3 uCi, iv after 30 mins; assay type: ADME, organism-based; conditions: in vivo, 0.5 h
# Liver [4] = test: Biodistribution in ddY mouse liver at 0.2 to 0.3 uCi, iv after 30 mins; assay type: ADME, organism-based; conditions: in vivo, 0.5 h
# Blood [5] = test: Biodistribution in ddY mouse blood at 0.2 to 0.3 uCi, iv after 2 mins; assay type: ADME, organism-based; conditions: in vivo
# Intestine [6] = test: Biodistribution in ddY mouse intestine at 0.2 to 0.3 uCi, iv after 2 mins; assay type: ADME, organism-based; conditions: in vivo
# Stomach [7] = test: Biodistribution in ddY mouse stomach at 0.2 to 0.3 uCi, iv after 2 mins; assay type: ADME, organism-based; conditions: in vivo
# Spleen [8] = test: Biodistribution in ddY mouse spleen at 0.2 to 0.3 uCi, iv after 2 mins; assay type: ADME, organism-based; conditions: in vivo
# Stomach [9] = test: Biodistribution in ddY mouse stomach after 30 mins; assay type: ADME, organism-based; conditions: in vivo, 0.5 h
# Heart [10] = test: Biodistribution in ddY mouse heart at 0.2 to 0.3 uCi, iv after 2 mins; assay type: ADME, organism-based; conditions: in vivo
# Heart [11] = test: Biodistribution in ddY mouse heart at 0.2 to 0.3 uCi, iv after 30 mins; assay type: ADME, organism-based; conditions: in vivo, 0.5 h
# Spleen [12] = test: Biodistribution in ddY mouse spleen assessed as at 0.2 to 0.3 uCi, iv after 30 mins; assay type: ADME, organism-based; conditions: in vivo, 0.5 h
# Liver [13] = test: Biodistribution in ddY mouse liver at 0.2 to 0.3 uCi, iv after 2 mins; assay type: ADME, organism-based; conditions: in vivo
# Brain [14] = test: Biodistribution in ddY mouse brain at 0.2 to 0.3 uCi, iv after 2 mins; assay type: ADME, organism-based; conditions: in vivo
# Kidney [15] = test: Biodistribution in ddY mouse kidney at 0.2 to 0.3 uCi, iv after 30 mins; assay type: ADME, organism-based; conditions: in vivo, 0.5 h
# Intestine [16] = test: Biodistribution in ddY mouse intestine at 0.2 to 0.3 uCi, iv after 30 mins; assay type: ADME, organism-based; conditions: in vivo, 0.5 h
# Kidney [17] = test: Biodistribution in ddY mouse kidney at 0.2 to 0.3 uCi, iv after 2 mins; assay type: ADME, organism-based; conditions: in vivo
# Brain [18] = test: Biodistribution in ddY mouse brain at 0.2 to 0.3 uCi, iv after 30 mins; assay type: ADME, organism-based; conditions: in vivo, 0.5 h
# Lung [19] = test: Biodistribution in ddY mouse lung at 0.2 to 0.3 uCi, iv after 2 mins; assay type: ADME, organism-based; conditions: in vivo
Structure (SMILES),Ki [1],Drug uptake (Blood [2]),Drug uptake (Lung [3]),Drug uptake (Liver [4]),Drug uptake (Blood [5]),Drug uptake (Intestine [6]),Drug uptake (Stomach [7]),Drug uptake (Spleen [8]),Drug uptake (Stomach [9]),Drug uptake (Heart [10]),Drug uptake (Heart [11]),Drug uptake (Spleen [12]),Drug uptake (Liver [13]),Drug uptake (Brain [14]),Drug uptake (Kidney [15]),Drug uptake (Intestine [16]),Drug uptake (Kidney [17]),Drug uptake (Brain [18]),Drug uptake (Lung [19])
O=C(/C=C/c1ccc(O)cc1)c1ccc(I)cc1,21.4 nM,–,–,–,–,–,–,–,–,–,–,–,–,–,–,–,–,–,–
CNc1ccc(/C=C/C(=O)c2ccc(I)cc2)cc1,6.3 nM,–,–,–,–,–,–,–,–,–,–,–,–,–,–,–,–,–,–
Nc1ccc(/C=C/C(=O)c2ccc([125I])cc2)cc1,–,1.46 % ID/g,1.43 % ID/g,8.16 % ID/g,3.62 % ID/g,1.84 % ID/g,0.87 %ID,1.53 % ID/g,1.58 %ID,4.59 % ID/g,0.84 % ID/g,0.6 % ID/g,7.52 % ID/g,4.49 % ID/g,6.34 % ID/g,11.27 % ID/g,6.96 % ID/g,0.46 % ID/g,4.74 % ID/g
COc1ccc(/C=C/C(=O)c2ccc([125I])cc2)cc1,–,0.46 % ID/g,0.79 % ID/g,4.03 % ID/g,1.34 % ID/g,1.93 % ID/g,0.9 %ID,1.38 % ID/g,2.11 %ID,3.74 % ID/g,0.63 % ID/g,0.29 % ID/g,5.97 % ID/g,2.45 % ID/g,3.27 % ID/g,10.19 % ID/g,4.61 % ID/g,0.22 % ID/g,3.81 % ID/g
CNc1ccc(/C=C/C(=O)c2ccc([125I])cc2)cc1,–,1.47 % ID/g,4.01 % ID/g,8.61 % ID/g,1.64 % ID/g,2.06 % ID/g,1.02 %ID,2.85 % ID/g,1.28 %ID,4.72 % ID/g,1.08 % ID/g,0.8 % ID/g,7.2 % ID/g,4.72 % ID/g,11.43 % ID/g,10.46 % ID/g,6.62 % ID/g,0.61 % ID/g,8.3 % ID/g
CN(C)c1ccc(/C=C/C(=O)c2ccc(I)cc2)cc1,2.9 nM,–,–,–,–,–,–,–,–,–,–,–,–,–,–,–,–,–,–
CN(C)c1ccc(/C=C/C(=O)c2ccc([125I])cc2)cc1,–,1.4 % ID/g,1.84 % ID/g,11.04 % ID/g,1.85 % ID/g,1.31 % ID/g,0.96 %ID,1.37 % ID/g,2.45 %ID,3.92 % ID/g,1.18 % ID/g,0.6 % ID/g,10.02 % ID/g,2.04 % ID/g,11.62 % ID/g,10.38 % ID/g,5.32 % ID/g,0.49 % ID/g,3.4 % ID/g
COc1ccc(/C=C/C(=O)c2ccc(I)cc2)cc1,6.3 nM,–,–,–,–,–,–,–,–,–,–,–,–,–,–,–,–,–,–
Nc1ccc(/C=C/C(=O)c2ccc(I)cc2)cc1,105 nM,–,–,–,–,–,–,–,–,–,–,–,–,–,–,–,–,–,–
Cc1ccc2c(c1)sc(-c1ccc(N(C)C)cc1)[n+]2C [THIOFLAVIN T],> 10000 nM,–,–,–,–,–,–,–,–,–,–,–,–,–,–,–,–,–,–
Nc1c(/N=N/c2ccc(-c3ccc(/N=N/c4cc(S(=O)(=O)O)c5ccccc5c4N)cc3)cc2)cc(S(=O)(=O)O)c2ccccc12 [CONGO RED],> 10000 nM,–,–,–,–,–,–,–,–,–,–,–,–,–,–,–,–,–,–
O=C(/C=C/c1ccc(O)cc1)c1ccc([125I])cc1,–,0.57 % ID/g,1.04 % ID/g,6.64 % ID/g,1.89 % ID/g,1.87 % ID/g,1.22 %ID,3.56 % ID/g,2.16 %ID,5.92 % ID/g,0.49 % ID/g,1.04 % ID/g,8.39 % ID/g,3.57 % ID/g,3.51 % ID/g,12.94 % ID/g,9.3 % ID/g,0.4 % ID/g,10.04 % ID/g
